Measurements from patent US20170333532A1, “ADP'ASE-ENHANCED APYRASE THERAPY FOR WOUNDS, MICROBIAL INFECTION, SEPSIS, AND HETEROTOPIC OSSIFICATION” (APT THERAPEUTICS, INC, priority 2014, published 2017).

How the values were obtained:
Assay type in all cases: cell-based
[1] = system: Burkholderia cepacia AU1114; assay: Killing of Burkholderia cepacia AU1114 by colistin with Apyrase Agent, CFU count; conditions: colistin at less than 20 μg/ml, with Apyrase Agent 2 U/ml or alone
Experimental: (§1) In this Example (and in subsequent Examples), the colistin is colistin sulfate salt, catalog number C4461 from Sigma-Aldrich (St. Louis, Mo.) and the apyrase is catalog number M0393L from New England BioLabs Inc. (Ipswich, Mass.).
(§2) Burkholderia cepacia AU1114 is grown in the presence of combinations of 0 and 2 U/ml of Apyrase Agent and approximately 0 to 20 μg/ml of colistin. After incubation, the numbers of viable cells are determined by counting the colony forming units (CFU) on the plate (data provided as CFU/ml). Apyrase Agent improves the efficiency of killing Burkholderia cepacia AU1114 by colistin. Apyrase Agent increases the effectiveness of colistin at less than 20 μg/ml such that less than 10 to 100 CFU/ml are detected relative to greater than 10^5 to 10^6 in the presence of colistin alone at the same concentrations.

[2] = system: Burkholderia cepacia GIIIb AU0062; assay: Killing of Burkholderia cepacia GIIIb AU0062 by colistin with Apyrase Agent, CFU count; conditions: colistin at less than 20 μg/ml, with Apyrase Agent 2 U/ml or alone
Experimental: as §1
(§3) Burkholderia cepacia GIIIb AU0062 is grown in the presence of combinations of 0 and 2 U/ml of Apyrase Agent and approximately 0 to 20 μg/ml of colistin. After incubation, the numbers of viable cells are determined by counting the colony forming units (CFU) on the plate (data provided as CFU/ml). Apyrase Agent improves the efficiency of killing Burkholderia cepacia GIIIb AU0062 by colistin. Apyrase Agent increases the effectiveness of colistin at less than 20 μg/ml such that less than 10 to 100 CFU/ml are detected relative to greater than 10^4 to 10^5 in the presence of colistin alone at the same concentrations.

A. baumannii strain DMCI = assay: Killing of A. baumannii DMCI by colistin with Apyrase Agent, CFU count; conditions: about 10^6 CFU/ml inoculum; Apyrase Agent 1 and 2 U/ml with colistin, or colistin alone at the same concentrations (4-32 μg/ml)
Experimental: as §1
Approximately 10^6 CFU/ml of A. baumannii strain DMCI is grown on solid medium culture plates in the presence of combinations of 0, 1, and 2 U/ml of Apyrase Agent and 0, 4, 8, 16, and 32 μg/ml of colistin. After incubation, the numbers of viable cells are determined by counting the colony forming units (CFU) on the plate (data provided as CFU/ml).

[3] = system: Burkholderia cepacia GUIa AU0019; assay: Killing of Burkholderia cepacia GUIa AU0019 by colistin with Apyrase Agent, CFU count; conditions: colistin at less than 10 μg/ml, with Apyrase Agent 2 U/ml or alone
Experimental: as §1
as §2, with “cepacia GUIa AU0019” for “cepacia AU1114”, “than 10” for “than 20”

[4] = system: P. aeruginosa strain AU7443, mucoid; assay: Killing of P. aeruginosa AU7443, mucoid by colistin with Apyrase Agent, CFU count; conditions: colistin at less than 20 μg/ml, with Apyrase Agent 2 U/ml or alone
Experimental: as §1
as §3, with “P. aeruginosa strain AU7443, mucoid” for “Burkholderia cepacia GIIIb AU0062”

[5] = system: A. baumannii strain AC285; assay: Killing of colistin-resistant A. baumannii AC285 by colistin with Apyrase Agent, CFU count; conditions: colistin at less than 5-10 μg/ml, with Apyrase Agent 2 U/ml or alone
Experimental: as §1
as §2, with “Approximately 10^5 to 10^6 CFU/ml of the colistin-resistant A. baumannii strain AC285 is” for “Burkholderia cepacia AU1114 is”, “to 32” for “to 20”, “killing A. baumannii strain AC285” for “killing Burkholderia cepacia AU1114”, “than 5-10” for “than 20”, “than 10^7” for “than 10^5”, “to 10^8” for “to 10^6”

[6] = system: Burkholderia multivorans AU0801; assay: Killing of Burkholderia multivorans AU0801 by colistin with Apyrase Agent, CFU count; conditions: colistin at less than 10 μg/ml, with Apyrase Agent 2 U/ml or alone
Experimental: as §1
as §2, with “Burkholderia multivorans AU0801” for “Burkholderia cepacia AU1114”, “than 10” for “than 20”

A. baumannii strain VBA9 = assay: Killing of colistin-resistant A. baumannii VBA9 by colistin with Apyrase Agent, CFU count; conditions: colistin at less than 10-15 μg/ml, with Apyrase Agent 2 U/ml or alone
Experimental: as §1
Approximately 10^5 to 10^6 CFU/ml of the colistin-resistant A. baumannii strain VBA9 is grown in the presence of combinations of 0 and 2 U/ml of Apyrase Agent and approximately 0 to 32 μg/ml of colistin. After incubation, the numbers of viable cells are determined by counting the colony forming units (CFU) on the plate (data provided as CFU/ml). Apyrase Agent improves the efficiency of killing A. baumannii strain VBA9 by colistin. Apyrase Agent increases the effectiveness of colistin at less than 10-15 μg/ml such that less than 10 to 100 CFU/ml are detected relative to greater than 10^6 to 10^7 in the presence of colistin alone.

[7] = system: Burkholderia vietnamiensis AU 10214; assay: Killing of Burkholderia vietnamiensis AU 10214 by colistin with Apyrase Agent, CFU count; conditions: colistin at less than 20 μg/ml, with Apyrase Agent 2 U/ml or alone
Experimental: as §1
as §2, with “vietnamiensis AU 10214” for “cepacia AU1114”

colistin sulfate salt
numbers of viable cells (CFU) [1]: 10^5 to 10^6 CFU/ml | numbers of viable cells (CFU) [2]: 10^4 to 10^5 CFU/ml | viable cell count (A. baumannii strain DMCI): approximately 10^7 CFU/ml | numbers of viable cells (CFU) [3]: 10^5 to 10^6 CFU/ml | numbers of viable cells (CFU) [4]: 10^4 to 10^5 CFU/ml | numbers of viable cells (CFU) [5]: 10^7 to 10^8 CFU/ml | numbers of viable cells (CFU) [6]: 10^5 to 10^6 CFU/ml | numbers of viable cells (CFU) (A. baumannii strain VBA9): 10^6 to 10^7 CFU/ml | numbers of viable cells (CFU) [7]: 10^5 to 10^6 CFU/ml
